According to paper PMC5578373, “Inhibitory Kappa B Kinase α (IKKα) Inhibitors That Recapitulate Their Selectivity in Cells against Isoform-Related Biomarkers” (Journal of Medicinal Chemistry, 2017):

Columns and labels:
Test in all cases: Millipore Kinase Profiler, single concentration
Type in all cases: biochemical
Settings in all cases: duplicate assay points, read-out: % residual activity
PKCα(h) = molecular target: T1, PKCα(h) (Homo sapiens, UniProt P17252)
T1 construct: purchased Millipore KinaseProfiler
Description: (§1) Kinase profiling of compound 48 was outsourced to Millipore, specifically the Kinase Profiler Customer Service for single concentration studies using duplicate assay points.

PKCμ(h) = molecular target: T2, PKCμ(h) (Homo sapiens, UniProt Q15139)
T2 construct: purchased Millipore KinaseProfiler
Description: as §1

PRK2(h) = molecular target: T3, PRK2(h) (Homo sapiens, UniProt Q16513)
T3 construct: purchased Millipore KinaseProfiler
Description: as §1

CHK1(h) = molecular target: T4, CHK1(h) (Homo sapiens, UniProt O14757)
T4 construct: purchased Millipore KinaseProfiler
Description: as §1

LIMK1(h) = molecular target: T5, LIMK1(h) (Homo sapiens, UniProt P53667)
T5 construct: purchased Millipore KinaseProfiler
Description: as §1

PKD2(h) = molecular target: T6, PKD2(h) (Homo sapiens, UniProt Q9BZL6)
T6 construct: purchased Millipore KinaseProfiler
T6 sequence (Q9BZL6 whole entry): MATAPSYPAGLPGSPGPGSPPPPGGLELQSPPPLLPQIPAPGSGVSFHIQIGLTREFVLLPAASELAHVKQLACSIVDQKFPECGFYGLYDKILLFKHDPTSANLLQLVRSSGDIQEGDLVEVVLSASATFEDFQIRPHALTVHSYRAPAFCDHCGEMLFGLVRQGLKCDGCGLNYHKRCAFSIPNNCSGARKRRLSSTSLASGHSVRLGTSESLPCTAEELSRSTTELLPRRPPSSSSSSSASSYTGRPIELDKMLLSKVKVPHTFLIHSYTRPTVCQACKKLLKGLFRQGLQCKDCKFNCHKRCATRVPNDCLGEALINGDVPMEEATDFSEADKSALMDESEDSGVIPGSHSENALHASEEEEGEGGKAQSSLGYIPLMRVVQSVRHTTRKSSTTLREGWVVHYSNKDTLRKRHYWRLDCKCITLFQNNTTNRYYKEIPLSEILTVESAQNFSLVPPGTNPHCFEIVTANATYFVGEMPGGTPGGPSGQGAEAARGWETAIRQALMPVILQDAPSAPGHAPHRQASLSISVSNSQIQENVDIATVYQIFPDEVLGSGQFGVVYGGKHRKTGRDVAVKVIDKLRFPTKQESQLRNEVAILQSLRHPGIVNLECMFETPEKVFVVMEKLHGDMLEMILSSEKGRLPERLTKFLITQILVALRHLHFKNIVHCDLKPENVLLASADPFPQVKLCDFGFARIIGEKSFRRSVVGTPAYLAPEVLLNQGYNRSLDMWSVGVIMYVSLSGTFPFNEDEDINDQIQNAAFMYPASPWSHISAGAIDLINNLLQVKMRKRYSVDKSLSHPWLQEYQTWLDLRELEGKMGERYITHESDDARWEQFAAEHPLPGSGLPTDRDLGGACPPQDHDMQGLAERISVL
Description: as §1

PKCη(h) = molecular target: T7, PKCη(h) (Homo sapiens, UniProt P24723)
T7 construct: purchased Millipore KinaseProfiler
Description: as §1

ROCK-II(h) = molecular target: T8, ROCK-II(h) (Homo sapiens, UniProt O75116)
T8 construct: purchased Millipore KinaseProfiler
Description: as §1

Fes(h) = molecular target: T9, Fes(h) (Homo sapiens, UniProt P07332)
T9 construct: purchased Millipore KinaseProfiler
T9 sequence (P07332 whole entry): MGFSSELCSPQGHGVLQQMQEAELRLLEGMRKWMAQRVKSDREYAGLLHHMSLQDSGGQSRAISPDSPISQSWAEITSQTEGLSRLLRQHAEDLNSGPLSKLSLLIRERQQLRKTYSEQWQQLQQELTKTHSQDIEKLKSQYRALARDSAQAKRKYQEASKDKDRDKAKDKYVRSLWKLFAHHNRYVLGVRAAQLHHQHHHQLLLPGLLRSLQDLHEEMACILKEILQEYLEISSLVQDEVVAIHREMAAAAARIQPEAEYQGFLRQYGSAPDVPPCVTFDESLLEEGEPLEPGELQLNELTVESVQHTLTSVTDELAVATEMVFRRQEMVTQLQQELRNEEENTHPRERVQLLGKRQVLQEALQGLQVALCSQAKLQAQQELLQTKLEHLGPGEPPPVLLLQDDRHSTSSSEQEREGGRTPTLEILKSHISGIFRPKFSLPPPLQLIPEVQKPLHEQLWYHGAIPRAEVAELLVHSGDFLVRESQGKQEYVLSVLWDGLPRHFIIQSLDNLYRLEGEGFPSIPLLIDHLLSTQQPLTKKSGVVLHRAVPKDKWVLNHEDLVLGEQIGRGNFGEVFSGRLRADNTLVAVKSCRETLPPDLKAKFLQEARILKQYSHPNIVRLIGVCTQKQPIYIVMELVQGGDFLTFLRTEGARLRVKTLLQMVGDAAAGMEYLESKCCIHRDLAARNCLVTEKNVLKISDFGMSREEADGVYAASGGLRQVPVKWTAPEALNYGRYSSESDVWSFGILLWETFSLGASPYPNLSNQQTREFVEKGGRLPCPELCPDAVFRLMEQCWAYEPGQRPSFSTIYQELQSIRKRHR
Description: as §1

cSRC(h) = molecular target: T10, cSRC(h) (Homo sapiens, UniProt P12931)
T10 construct: purchased Millipore KinaseProfiler
Description: as §1

CaMKI(h) = molecular target: T11, CaMKI(h) (Homo sapiens, UniProt Q14012)
T11 construct: purchased Millipore KinaseProfiler
T11 sequence (Q14012 whole entry): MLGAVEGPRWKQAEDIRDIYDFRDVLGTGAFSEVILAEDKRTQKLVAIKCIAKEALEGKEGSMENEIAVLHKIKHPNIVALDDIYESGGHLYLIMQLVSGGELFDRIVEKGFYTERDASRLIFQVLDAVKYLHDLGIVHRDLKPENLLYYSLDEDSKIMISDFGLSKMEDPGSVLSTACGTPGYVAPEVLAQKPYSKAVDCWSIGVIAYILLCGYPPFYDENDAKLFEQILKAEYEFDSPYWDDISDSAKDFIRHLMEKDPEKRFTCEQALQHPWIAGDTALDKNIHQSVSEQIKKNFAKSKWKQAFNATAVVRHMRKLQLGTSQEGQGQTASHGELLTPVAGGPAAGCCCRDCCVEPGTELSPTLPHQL
Description: as §1

IR(h) = molecular target: T12, IR(h) (Homo sapiens, UniProt P06213)
T12 construct: purchased Millipore KinaseProfiler
Description: as §1

MST2(h) = molecular target: T13, MST2(h) (Homo sapiens, UniProt Q13188)
T13 construct: purchased Millipore KinaseProfiler
Description: as §1

Abl(h) = molecular target: T14, Abl(h) (Homo sapiens, UniProt P00519)
T14 construct: purchased Millipore KinaseProfiler
Description: as §1

ZAP-70(h) = molecular target: T15, ZAP-70(h) (Homo sapiens, UniProt P43403)
T15 construct: purchased Millipore KinaseProfiler
T15 sequence (P43403 whole entry): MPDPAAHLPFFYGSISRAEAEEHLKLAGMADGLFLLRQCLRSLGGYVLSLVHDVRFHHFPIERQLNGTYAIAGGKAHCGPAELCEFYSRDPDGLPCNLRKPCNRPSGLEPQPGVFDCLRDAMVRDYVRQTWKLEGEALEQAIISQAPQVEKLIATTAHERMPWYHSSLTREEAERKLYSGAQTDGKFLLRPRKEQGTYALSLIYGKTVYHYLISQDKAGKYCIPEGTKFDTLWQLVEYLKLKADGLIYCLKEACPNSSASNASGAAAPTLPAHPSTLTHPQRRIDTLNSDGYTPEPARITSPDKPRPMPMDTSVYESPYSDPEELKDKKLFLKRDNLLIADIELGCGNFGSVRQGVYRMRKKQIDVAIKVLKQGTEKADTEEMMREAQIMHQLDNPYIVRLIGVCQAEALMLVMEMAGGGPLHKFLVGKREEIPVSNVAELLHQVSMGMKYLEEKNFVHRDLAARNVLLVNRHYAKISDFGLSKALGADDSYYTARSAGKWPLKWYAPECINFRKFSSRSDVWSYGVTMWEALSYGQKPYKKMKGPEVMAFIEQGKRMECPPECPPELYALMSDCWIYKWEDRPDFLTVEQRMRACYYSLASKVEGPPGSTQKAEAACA
Description: as §1

HIPK1(h) = molecular target: T16, HIPK1(h) (Homo sapiens, UniProt Q86Z02)
T16 construct: purchased Millipore KinaseProfiler
Description: as §1

Rsk1(h) = molecular target: T17, Rsk1(h) (Homo sapiens, UniProt Q15418)
T17 construct: purchased Millipore KinaseProfiler
T17 sequence (Q15418 whole entry): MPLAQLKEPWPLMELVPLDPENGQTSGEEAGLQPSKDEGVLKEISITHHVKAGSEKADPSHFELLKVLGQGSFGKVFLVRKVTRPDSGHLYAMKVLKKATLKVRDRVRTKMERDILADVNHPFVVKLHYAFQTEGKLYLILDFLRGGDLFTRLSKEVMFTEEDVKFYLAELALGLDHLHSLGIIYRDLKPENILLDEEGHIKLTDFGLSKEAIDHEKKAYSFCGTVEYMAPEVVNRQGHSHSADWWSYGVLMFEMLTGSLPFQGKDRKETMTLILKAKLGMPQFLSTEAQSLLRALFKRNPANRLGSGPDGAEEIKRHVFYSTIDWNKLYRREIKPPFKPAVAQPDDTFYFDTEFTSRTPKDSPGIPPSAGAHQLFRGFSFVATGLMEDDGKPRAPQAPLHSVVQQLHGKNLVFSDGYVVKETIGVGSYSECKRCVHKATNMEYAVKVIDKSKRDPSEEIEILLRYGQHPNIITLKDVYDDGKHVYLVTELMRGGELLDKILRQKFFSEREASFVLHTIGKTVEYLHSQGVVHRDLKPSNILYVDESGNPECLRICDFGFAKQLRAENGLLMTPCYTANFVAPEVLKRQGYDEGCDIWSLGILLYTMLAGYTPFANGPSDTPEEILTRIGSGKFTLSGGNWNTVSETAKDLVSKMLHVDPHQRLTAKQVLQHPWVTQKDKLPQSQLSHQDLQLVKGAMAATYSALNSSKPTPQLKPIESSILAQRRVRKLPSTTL
Description: as §1

EGFR(h) = molecular target: T18, EGFR(h) (Homo sapiens, UniProt P00533)
T18 construct: purchased Millipore KinaseProfiler
Description: as §1

CaMKIV(h) = molecular target: T19, CaMKIV(h) (Homo sapiens, UniProt Q16566)
T19 construct: purchased Millipore KinaseProfiler
Description: as §1

PDGFRβ(h) = molecular target: T20, PDGFRβ(h) (Homo sapiens, UniProt P09619)
T20 construct: purchased Millipore KinaseProfiler
Description: as §1

DAPK1(h) = molecular target: T21, DAPK1(h) (Homo sapiens, UniProt P53355)
T21 construct: purchased Millipore KinaseProfiler
Description: as §1

NEK2(h) = molecular target: T22, NEK2(h) (Homo sapiens, UniProt P51955)
T22 construct: purchased Millipore KinaseProfiler
Description: as §1

CK1δ(h) = molecular target: T23, CK1δ(h) (Homo sapiens, UniProt P48730)
T23 construct: purchased Millipore KinaseProfiler
Description: as §1

FGFR3(h) = molecular target: T24, FGFR3(h) (Homo sapiens, UniProt P22607)
T24 construct: purchased Millipore KinaseProfiler
T24 sequence (P22607 23-806): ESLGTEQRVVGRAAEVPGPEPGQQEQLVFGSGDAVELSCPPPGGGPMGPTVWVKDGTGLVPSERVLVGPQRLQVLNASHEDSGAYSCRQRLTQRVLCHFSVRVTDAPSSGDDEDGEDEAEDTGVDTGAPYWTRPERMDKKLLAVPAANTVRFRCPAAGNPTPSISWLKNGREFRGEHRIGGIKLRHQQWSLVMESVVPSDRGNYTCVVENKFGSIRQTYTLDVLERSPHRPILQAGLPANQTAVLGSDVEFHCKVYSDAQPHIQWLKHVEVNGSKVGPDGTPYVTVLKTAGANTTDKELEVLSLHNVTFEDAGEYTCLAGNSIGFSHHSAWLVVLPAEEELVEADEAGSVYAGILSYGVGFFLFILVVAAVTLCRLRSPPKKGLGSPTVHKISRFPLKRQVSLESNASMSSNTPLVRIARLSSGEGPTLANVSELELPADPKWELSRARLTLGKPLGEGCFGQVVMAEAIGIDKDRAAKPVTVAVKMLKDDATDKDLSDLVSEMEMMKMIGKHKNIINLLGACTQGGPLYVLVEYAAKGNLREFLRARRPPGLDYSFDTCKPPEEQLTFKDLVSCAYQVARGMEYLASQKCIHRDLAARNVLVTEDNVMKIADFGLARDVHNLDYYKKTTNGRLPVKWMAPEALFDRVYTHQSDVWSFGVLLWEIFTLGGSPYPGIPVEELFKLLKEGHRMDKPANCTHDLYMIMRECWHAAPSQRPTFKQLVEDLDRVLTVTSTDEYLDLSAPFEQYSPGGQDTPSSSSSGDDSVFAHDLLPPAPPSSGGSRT
Description: as §1

MEK1(h) = molecular target: T25, MEK1(h) (Homo sapiens, UniProt Q02750)
T25 construct: purchased Millipore KinaseProfiler
Description: as §1

c-RAF(h) = molecular target: T26, c-RAF(h) (Homo sapiens, UniProt P04049)
T26 construct: purchased Millipore KinaseProfiler
Description: as §1

CHK2(h) = molecular target: T27, CHK2(h) (Homo sapiens, UniProt O96017)
T27 construct: purchased Millipore KinaseProfiler
Description: as §1

PKBα(h) = molecular target: T28, PKBα(h) (Homo sapiens, UniProt P31749)
T28 construct: purchased Millipore KinaseProfiler
Description: as §1

MAPKAP-K2(h) = molecular target: T29, MAPKAP-K2(h) (Homo sapiens, UniProt P49137)
T29 construct: purchased Millipore KinaseProfiler
Description: as §1

JAK2(h) = molecular target: T30, JAK2(h) (Homo sapiens, UniProt O60674)
T30 construct: purchased Millipore KinaseProfiler
Description: as §1

AMPKα1(h) = molecular target: T31, AMPKα1(h) (Homo sapiens, UniProt Q13131)
T31 construct: purchased Millipore KinaseProfiler
Description: as §1

ALK(h) = molecular target: T32, ALK(h) (Homo sapiens, UniProt Q9UM73)
T32 construct: purchased Millipore KinaseProfiler
Description: as §1

EphB4(h) = molecular target: T33, EphB4(h) (Homo sapiens, UniProt P54760)
T33 construct: purchased Millipore KinaseProfiler
Description: as §1

CDK2/cyclinA(h) = molecular target: T34, CDK2/cyclinA(h) (Homo sapiens, UniProt P24941)
T34 construct: purchased Millipore KinaseProfiler
Description: as §1

CK2(h) = molecular target: T35, CK2(h) (Homo sapiens, UniProt P68400)
T35 construct: purchased Millipore KinaseProfiler
Description: as §1

GSK3β(h) = molecular target: T36, GSK3β(h) (Homo sapiens, UniProt P49841)
T36 construct: purchased Millipore KinaseProfiler
Description: as §1

PAK2(h) = molecular target: T37, PAK2(h) (Homo sapiens, UniProt Q13177)
T37 construct: purchased Millipore KinaseProfiler
Description: as §1

TrkB(h) = molecular target: T38, TrkB(h) (Homo sapiens, UniProt Q16620)
T38 construct: purchased Millipore KinaseProfiler
Description: as §1

TBK1(h) = molecular target: T39, TBK1(h) (Homo sapiens, UniProt Q9UHD2)
T39 construct: purchased Millipore KinaseProfiler
T39 sequence (Q9UHD2 whole entry): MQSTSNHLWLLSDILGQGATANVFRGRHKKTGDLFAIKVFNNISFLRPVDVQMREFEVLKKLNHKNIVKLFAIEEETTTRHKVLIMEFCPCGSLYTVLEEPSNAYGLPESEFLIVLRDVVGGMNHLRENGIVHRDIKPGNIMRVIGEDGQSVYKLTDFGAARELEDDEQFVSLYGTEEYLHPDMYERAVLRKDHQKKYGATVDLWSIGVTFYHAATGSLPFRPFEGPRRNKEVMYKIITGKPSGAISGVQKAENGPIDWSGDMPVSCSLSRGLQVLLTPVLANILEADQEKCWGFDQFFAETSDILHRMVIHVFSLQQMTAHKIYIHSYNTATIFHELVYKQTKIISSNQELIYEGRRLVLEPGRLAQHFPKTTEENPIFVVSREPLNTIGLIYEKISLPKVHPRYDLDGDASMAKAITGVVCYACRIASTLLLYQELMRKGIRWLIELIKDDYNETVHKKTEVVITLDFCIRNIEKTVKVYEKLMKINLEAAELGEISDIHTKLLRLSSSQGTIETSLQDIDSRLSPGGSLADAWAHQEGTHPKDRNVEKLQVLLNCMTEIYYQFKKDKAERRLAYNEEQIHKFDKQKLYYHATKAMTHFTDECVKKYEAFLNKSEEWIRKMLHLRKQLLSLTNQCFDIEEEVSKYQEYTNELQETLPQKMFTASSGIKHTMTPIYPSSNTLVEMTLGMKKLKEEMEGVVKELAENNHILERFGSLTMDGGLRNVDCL
Description: as §1

N#Cc1c[nH]c2nc(N)nc(-c3ccc(S(N)(=O)=O)cc3)c12 [Compound 48, 4-(2-Amino-5-cyano-7H-pyrrolo[2,3-d]pyrimidin-4-yl)benzenesulfonamide]
remaining activity at 10 µM (PKCα(h)): 41%
remaining activity at 10 µM (PKCμ(h)): 10%
remaining activity at 10 µM (PRK2(h)): 31%
remaining activity at 10 µM (CHK1(h)): 58%
remaining activity at 10 µM (LIMK1(h)): 30%
remaining activity at 10 µM (PKD2(h)): 26%
remaining activity at 10 µM (PKCη(h)): 53%
remaining activity at 10 µM (ROCK-II(h)): 20%
remaining activity at 10 µM (Fes(h)): 27%
remaining activity at 10 µM (cSRC(h)): 76%
remaining activity at 10 µM (CaMKI(h)): 12%
remaining activity at 10 µM (IR(h)): 89%
remaining activity at 10 µM (MST2(h)): 59%
remaining activity at 10 µM (Abl(h)): 69%
remaining activity at 10 µM (ZAP-70(h)): 138%
remaining activity at 10 µM (HIPK1(h)): 90%
remaining activity at 10 µM (Rsk1(h)): 39%
remaining activity at 10 µM (EGFR(h)): 108%
remaining activity at 10 µM (CaMKIV(h)): 37%
remaining activity at 10 µM (PDGFRβ(h)): 104%
remaining activity at 10 µM (DAPK1(h)): 99%
remaining activity at 10 µM (NEK2(h)): 96%
remaining activity at 10 µM (CK1δ(h)): 4%
remaining activity at 10 µM (FGFR3(h)): 32%
remaining activity at 10 µM (MEK1(h)): 14%
remaining activity at 10 µM (c-RAF(h)): 37%
remaining activity at 10 µM (CHK2(h)): 17%
remaining activity at 10 µM (PKBα(h)): 93%
remaining activity at 10 µM (MAPKAP-K2(h)): 69%
remaining activity at 10 µM (JAK2(h)): 29%
remaining activity at 10 µM (AMPKα1(h)): 22%
remaining activity at 10 µM (ALK(h)): 84%
remaining activity at 10 µM (EphB4(h)): 56%
remaining activity at 10 µM (CDK2/cyclinA(h)): 20%
remaining activity at 10 µM (CK2(h)): 37%
remaining activity at 10 µM (GSK3β(h)): 16%
remaining activity at 10 µM (PAK2(h)): 73%
remaining activity at 10 µM (TrkB(h)): 31%
remaining activity at 10 µM (TBK1(h)): 54%
